From patent US8975228B2, “Use of boswellic acids for the prophylaxis and/or treatment of damage to and/or inflammation of the islets of Langerhans” (Fraunhofer-Gesellschaft zur Forderung der Angewandten …, priority 2010, dated 2015)

What was measured:
islets of Langerhans = assay: Histology of pancreas in MLD-STZ diabetic mice (H&E, anti-CD3, anti-activated caspase 3); type: in vivo, mouse; conditions: STZ 40 mg/kg i.p. 5 days; 10 days i.p. BE 150 mg/kg, AKBA 15 mg/kg or KBA 7.5 mg/kg; examined day 10
Source text: (§1) The use of “multiple low dose streptozotocin” (MOL-STZ diabetes) is an acknowledged animal model for inducing diabetes that occurs frequently in association with insulitis, which corresponds to IDDM in humans. In the pathogenesis, macrophages and T-lymphocytes infiltrate the islets of Langerhans and the B-cells are destroyed. MLD-STZ induced diabetes is very well suited for investigating the anti-diabetic and/or anti-inflammatory effect of drugs on the pancreatic islets. For inducing MLD-STZ diabetes, a mouse is dosed with 40 mg/kg STZ per day intraperitoneally (i.p.) over 5 days. During this time there is no B-cell destruction. Only after 10 to 15 days after the first injection of STZ do signs of inflammation of the islets of Langerhans appear, when T-lymphocytes infiltrate and the B-cells are being destroyed. After about 16 days, the symptoms of the inflammation have disappeared again. Most B-cells have died. As a consequence, insulin secretion is reduced or no longer existent (cf. McEvoy et al. 1984, “Multiple low-dose streptozotocin-induced diabetes in the mouse”, Evidence for stimulation of a cytotoxic cellular immune response against an insulin-producing beta cell line, J Clin Invest, 74:715-22). This animal model of experimental induction of diabetes mellitus essentially corresponds with the pathogenesis of type 1 diabetes in young humans.
In order to investigate the effect of an extract containing boswellic acids on the damage and/or inflammation of the islets of Langerhans, a group of mice was dosed with streptozotocin alone and another group of mice was dosed with streptozotocin plus boswellic acid extract (a mixture of boswellic acids with an overall concentration of all boswellic acids of 62%) The aforesaid extract contained 5.51% KBA and 4.96% AKBA. From the 1st to the 10th day, C3M/HeN and Bk +/+ were administered i.p with a dose of 150 mg/kg body weight in male mice of strains bred in the laboratory. […]

[1] = Blood glucose level in MLD-STZ diabetic mice; type: in vivo, mouse; conditions: for STZ-induced increase of the blood glucose level: single substance i.p. daily 10 days, AKBA 15 mg/kg, KBA 7.5 mg/kg
Source text: as §1
For inducing MLD-STZ diabetes, the animals were injected i.p. 40 mg/kg STZ a day for a period of five days. In group A the animals were additionally treated with 150 mg/kg BE i.p. for 5 days (FIG. 5A), in group B for 10 days (FIG. 5B) and in group C for 21 days (FIG. 5C).
The animals were treated for 5 days with STZ as described above. AKBA in solution in Tween 80 was injected i.p. daily for 10 days.

IFN-γ [2] = assay: Serum pro-inflammatory cytokines in MLD-STZ diabetic mice; type: in vivo, mouse; conditions: 10 days i.p.; BE 150 mg/kg, AKBA 15.0 mg/kg, KBA 7.5 mg/kg
Method: (§2) Male mice were injected i.p. 40 mg/kg STZ for 5 days (STZ group, group A). A second group was, in addition to STZ, treated i.p. with 150 mg/kg BE for 10 days (group STZ+BE, group B). A further group (group C) remained untreated. After 10 days blood samples were taken.
(§3) In further tests, 15.0 mg/kg AKBA or 7.5 mg/kg KBA respectively were administered instead of 150 mg/kg BE.
(§4) Ten days after daily i.p. injections of 150 mg/kg of boswellia extract, of 15.0 mg/kg AKBA or 7.5 mg/kg KBA in MLD-STZ animals (40 mg/kg i.p. for 5 days) the presence of cytokines was determined using the commercially available Multianalyte Array TM Kits (mouse-inflammatory cytokines, SA Bioscience Corporation, USA) according to the instructions on usage provided by the manufacturer. The cytokines IL-1A, IL-1B, IL-2, IFN-γ, IL-6 and TNF-α were ascertained.

IL-1A = assay: as above; type: in vivo, mouse; conditions: 10 days i.p.; BE 150 mg/kg, AKBA 15.0 mg/kg, KBA 7.5 mg/kg
Method: as §2, §3, §4

IL-1B = assay: as above; type: in vivo, mouse; conditions: 10 days i.p.; BE 150 mg/kg, AKBA 15.0 mg/kg, KBA 7.5 mg/kg
Method: as §2, §3, §4

IL-2 [3] = assay: as above; type: in vivo, mouse; conditions: 10 days i.p.; BE 150 mg/kg, AKBA 15.0 mg/kg, KBA 7.5 mg/kg
Method: as §2, §3, §4

IL-6 = assay: as above; type: in vivo, mouse; conditions: 10 days i.p.; BE 150 mg/kg, AKBA 15.0 mg/kg, KBA 7.5 mg/kg
Method: as §2, §3, §4

TNF-α [4] = assay: as above; type: in vivo, mouse; conditions: 10 days i.p.; BE 150 mg/kg, AKBA 15.0 mg/kg, KBA 7.5 mg/kg
Method: as §2, §3, §4

[5] = molecular target: T1, 5-Lipoxygenase (leukotriene) (Homo sapiens, UniProt P09917); conditions: in vitro, technical literature; cited from earlier work
T1 sequence (P09917 1-674): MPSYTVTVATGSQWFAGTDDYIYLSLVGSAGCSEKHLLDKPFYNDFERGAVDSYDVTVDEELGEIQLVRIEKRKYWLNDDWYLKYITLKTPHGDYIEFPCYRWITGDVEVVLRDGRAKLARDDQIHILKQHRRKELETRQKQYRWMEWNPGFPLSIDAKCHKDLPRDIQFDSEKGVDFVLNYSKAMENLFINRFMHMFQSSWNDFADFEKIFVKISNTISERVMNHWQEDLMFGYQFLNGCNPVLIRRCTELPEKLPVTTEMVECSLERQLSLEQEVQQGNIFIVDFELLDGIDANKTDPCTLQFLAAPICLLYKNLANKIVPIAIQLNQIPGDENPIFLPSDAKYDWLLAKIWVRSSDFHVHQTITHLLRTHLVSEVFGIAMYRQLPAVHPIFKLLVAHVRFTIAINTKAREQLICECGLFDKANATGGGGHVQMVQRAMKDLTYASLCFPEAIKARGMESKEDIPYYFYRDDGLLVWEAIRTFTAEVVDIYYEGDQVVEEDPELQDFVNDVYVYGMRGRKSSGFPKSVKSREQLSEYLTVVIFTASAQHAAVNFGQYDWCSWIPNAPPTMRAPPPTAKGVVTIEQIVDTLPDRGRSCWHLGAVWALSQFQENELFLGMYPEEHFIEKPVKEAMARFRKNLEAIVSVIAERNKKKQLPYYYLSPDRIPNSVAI

[6] = molecular target: Cyclooxygenase 1 (prostaglandin) (Homo sapiens, UniProt P23219); conditions: in vitro, technical literature; cited from earlier work
IL-1β = conditions: in vitro, technical literature; cited from earlier work
IL-2 [7] = conditions: in vitro, technical literature; cited from earlier work
IFN-γ [8] = conditions: in vitro, technical literature; cited from earlier work
TNF-α [9] = conditions: in vitro, technical literature; cited from earlier work
NFK B = conditions: in vitro, technical literature; cited from earlier work
C3-Convertase = conditions: in vitro, technical literature; cited from earlier work
Elastase = molecular target: T2, Elastase (Homo sapiens, UniProt P08246); conditions: in vitro, technical literature; cited from earlier work
T2 sequence (P08246 30-267): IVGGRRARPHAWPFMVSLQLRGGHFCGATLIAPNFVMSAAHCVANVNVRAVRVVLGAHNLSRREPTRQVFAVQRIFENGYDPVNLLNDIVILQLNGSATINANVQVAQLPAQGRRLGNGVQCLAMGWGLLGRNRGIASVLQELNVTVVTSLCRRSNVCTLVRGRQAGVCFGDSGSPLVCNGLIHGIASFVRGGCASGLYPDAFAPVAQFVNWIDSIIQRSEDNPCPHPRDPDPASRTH

Cyclooxygenase 1 (prostaglandin), sequence (P23219 24-599): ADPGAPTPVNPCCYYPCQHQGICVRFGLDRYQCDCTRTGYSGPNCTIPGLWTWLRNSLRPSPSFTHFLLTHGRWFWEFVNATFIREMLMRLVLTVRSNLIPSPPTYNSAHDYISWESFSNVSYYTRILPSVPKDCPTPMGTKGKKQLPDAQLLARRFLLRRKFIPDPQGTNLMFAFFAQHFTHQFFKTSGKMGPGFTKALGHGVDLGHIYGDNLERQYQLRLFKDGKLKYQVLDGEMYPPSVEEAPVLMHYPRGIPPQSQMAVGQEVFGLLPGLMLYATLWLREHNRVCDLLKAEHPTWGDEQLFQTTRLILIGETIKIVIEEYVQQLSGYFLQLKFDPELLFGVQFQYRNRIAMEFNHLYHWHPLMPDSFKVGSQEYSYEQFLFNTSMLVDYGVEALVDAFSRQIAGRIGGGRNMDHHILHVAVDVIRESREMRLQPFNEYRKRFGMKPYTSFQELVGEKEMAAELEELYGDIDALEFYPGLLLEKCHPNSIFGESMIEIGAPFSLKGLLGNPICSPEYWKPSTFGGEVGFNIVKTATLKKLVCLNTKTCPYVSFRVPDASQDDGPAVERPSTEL

| Structure (SMILES) | Signs of apoptosis (activated caspase 3) (islets of Langerhans) | Signs of inflammation of the islets of Langerhans (H&E staining, T-lymphocytes by CD3) (islets of Langerhans) | Blood glucose level after administration was discontinued after 10 days ([1]; AKBA 15 mg/kg i.p. 10 days) | STZ-induced increase of the blood glucose level [1] | STZ-induced increase in serum IFN-γ (IFN-γ [2]) | STZ-induced increase in serum IL-1A (IL-1A) | STZ-induced increase in serum IL-1B (IL-1B) | STZ-induced increase in serum IL-2 (IL-2 [3]) | STZ-induced increase in serum IL-6 (IL-6) | STZ-induced increase in serum TNF-α (TNF-α [4]) | Effect on 5-Lipoxygenase (leukotriene) [5] | Effect on Cyclooxygenase 1 (prostaglandin) [6] | Effect on IL-1β (IL-1β) | Effect on IL-2 (IL-2 [7]) | Effect on IFN-γ (IFN-γ [8]) | Effect on TNF-α (TNF-α [9]) | Effect on NFK B (NFK B) | Effect on C3-Convertase (C3-Convertase) | Effect on Elastase (Elastase) |
| --- | --- | --- | --- | --- | --- | --- | --- | --- | --- | --- | --- | --- | --- | --- | --- | --- | --- | --- | --- |
| CC(=O)O[C@@H]1CC[C@@]2(C)[C@@H](CC[C@]3(C)[C@@H]2C(=O)C=C2[C@@H]4[C@@H](C)[C@H](C)CC[C@]4(C)CC[C@]23C)[C@@]1(C)C(=O)O [AKBA, acetyl-11-keto-β-boswellic acid] | only minor signs of apoptosis | no signs of inflammation | no significant further increase | significant reduction | reduced or prevented | reduced or prevented | reduced or prevented | reduced or prevented | reduced or prevented | reduced or prevented | Lowered | Lowered | Lowered | Lowered | Lowered | Lowered | Lowered | Lowered | Lowered |
| C[C@H]1[C@H](C)CC[C@]2(C)CC[C@]3(C)C(=CC(=O)[C@@H]4[C@@]5(C)CC[C@@H](O)[C@](C)(C(=O)O)[C@@H]5CC[C@]43C)[C@H]12 [KBA, 11-keto-β-boswellic acid] | – | neither signs of inflammation | – | reduced | reduced or prevented | reduced or prevented | reduced or prevented | reduced or prevented | reduced or prevented | reduced or prevented | – | – | – | – | – | – | – | – | – |
